Measured values published in US20150165380A1, “DRAW SOLUTES COMPRISING ALKYL AMMONIUM SALT COMPOUNDS” (Samsung Electronics Co., Ltd., priority 2013, published 2015).
Values belong to the compound of their own block, whether it stands above or below them.

Key:
[1] = Evaluation of osmotic pressure of draw solutions (Osmomat 010, freezing point lowering method); assay type: physicochemical
Experimental: Osmotic pressure of each draw solution is measured by using osmotic pressure measurement equipment (Osmomat 010) in accordance with the freezing point lowering method.

[2] = Osmotic flow analysis: water flux and reverse solute flux in U-shaped semi-dynamic forward osmosis apparatus; settings: feed distilled water
Experimental: The osmotic flow is evaluated with a homemade, U-shaped semi-dynamic forward osmosis apparatus. To test performance of the draw solute, a semi-permeable commercialized FO membrane (cellulose trifluoroacetate) (Hydration Technology Innovation (HTI), USA) is placed in the middle of the apparatus. Each side is filled with distilled water as a feed solution and a draw solution with predetermined or given concentrations, respectively. The selective layer is faced toward the feed solutions and osmotic water flux from feed to draw solutions is calculated from the volumetric change of each solution during one hour after 30 min. The reversed solute flux from draw to feed solution through the membrane is measured by conductivity, inductively coupled plasma optical emission spectroscopy (ICP-OES), and total organic carbon (TOC).

[3] = draw solution osmotic pressure 15.0
[4] = draw solution osmotic pressure 29.0
[5] = draw solution osmotic pressure 43.0
[6] = draw solution osmotic pressure 8.3
[7] = draw solution osmotic pressure 23.5
[8] = draw solution osmotic pressure 57.6

Structure (SMILES): [Cl-].[Cl-].[Mg+2] [Comp. Example 1, MgCl2]
- Osmotic pressure ([1]; draw solution concentration 19.0 mg/ml): 11.9 atm
- Osmotic pressure ([1]; draw solution concentration 38.1 mg/ml): 25.2 atm
- Osmotic pressure ([1]; draw solution concentration 76.2 mg/ml): 60.6 atm
- Reverse solute flux [2, 3]: 3.3 GMH
- Water flux [2, 3]: 5.6 LMH
- Reverse solute flux [2, 4]: 4.8 GMH
- Water flux [2, 4]: 8.2 LMH
- Reverse solute flux [2, 5]: 5.6 GMH
- Water flux [2, 5]: 9.7 LMH

- Osmotic pressure ([1]; draw solution concentration 60.2 mg/ml): 11.7 atm
- Osmotic pressure ([1]; draw solution concentration 120.4 mg/ml): 25.8 atm
- Osmotic pressure ([1]; draw solution concentration 240.7 mg/ml): 62.4 atm
- Reverse solute flux [2, 3]: 0.9 GMH
- Water flux [2, 3]: 4.2 LMH
- Reverse solute flux [2, 4]: 1.2 GMH
- Water flux [2, 4]: 5.5 LMH
Structure (SMILES): O=S(=O)([O-])[O-].[Mg+2] [Comp. Example 2, MgSO4]

Structure (SMILES): NCCN.O=C(O)CC(O)(CC(=O)O)C(=O)[O-].O=C([O-])CC(O)(CC(=O)[O-])C(=O)[O-].[Na+].[Na+].[Na+].[Na+] [Example 1]
- Osmotic pressure ([1]; draw solution concentration 29.6 mg/ml): 5.8 atm
- Osmotic pressure ([1]; draw solution concentration 118.4 mg/ml): 21.8 atm
- Osmotic pressure ([1]; draw solution concentration 177.6 mg/ml): 33.8 atm
- Osmotic pressure ([1]; draw solution concentration 236.8 mg/ml): 50.4 atm
- Osmotic pressure ([1]; draw solution concentration 266.4 mg/ml): 61.1 atm
- Reverse solute flux [2, 6]: 0 GMH
- Water flux [2, 6]: 4.06 LMH
- Reverse solute flux [2, 7]: 0.02 GMH
- Water flux [2, 7]: 8.25 LMH
- Reverse solute flux [2, 8]: 0.41 GMH
- Water flux [2, 8]: 11.58 LMH

Structure (SMILES): NCCNCCNCCNCCN.O=C(O)CC(O)(CC(=O)O)C(=O)[O-].O=C(O)CC(O)(CC(=O)O)C(=O)[O-].O=C([O-])CC(O)(CC(=O)O)C(=O)[O-].O=C([O-])CC(O)(CC(=O)[O-])C(=O)[O-].O=C([O-])CC(O)(CC(=O)[O-])C(=O)[O-].[Na+].[Na+].[Na+].[Na+].[Na+].[Na+].[Na+].[Na+].[Na+].[Na+] [Example 2]
- Osmotic pressure ([1]; draw solution concentration 34.2 mg/ml): 6.3 atm
- Osmotic pressure ([1]; draw solution concentration 68.5 mg/ml): 11.8 atm
- Osmotic pressure ([1]; draw solution concentration 102.7 mg/ml): 17.5 atm
- Osmotic pressure ([1]; draw solution concentration 205.43 mg/ml): 37.5 atm
- Osmotic pressure ([1]; draw solution concentration 301.2 mg/ml): 67.1 atm

Structure (SMILES): NCCCCCCNCCCCCCN.O=C(O)CC(O)(CC(=O)O)C(=O)[O-].O=C([O-])CC(O)(CC(=O)O)C(=O)[O-].O=C([O-])CC(O)(CC(=O)[O-])C(=O)[O-].[Na+].[Na+].[Na+].[Na+].[Na+].[Na+] [Example 4]
- Osmotic pressure ([1]; draw solution concentration 46.2 mg/ml): 8.6 atm
- Osmotic pressure ([1]; draw solution concentration 92.3 mg/ml): 17.2 atm
- Osmotic pressure ([1]; draw solution concentration 184.6 mg/ml): 38.2 atm
- Osmotic pressure ([1]; draw solution concentration 249.2 mg/ml): 59.3 atm

- Osmotic pressure ([1]; draw solution concentration 46.3 mg/ml): 10.2 atm
- Osmotic pressure ([1]; draw solution concentration 92.6 mg/ml): 18.2 atm
- Osmotic pressure ([1]; draw solution concentration 185.2 mg/ml): 20.4 atm
- Osmotic pressure ([1]; draw solution concentration 277.8 mg/ml): 26.8 atm
- Osmotic pressure ([1]; draw solution concentration 370.4 mg/ml): 37.6 atm
- Osmotic pressure ([1]; draw solution concentration 463.0 mg/ml): 62.8 atm
Structure (SMILES): NCCNCCN.O=S(=O)(O)O.O=S(=O)([O-])O.O=S(=O)([O-])[O-].[Na+].[Na+].[Na+] [Example 7]
